# Reference: patent publication US12491170B2, “Stable treprostinil prodrugs” (United Therapeutics Corporation, priority 2020, dated 2025)
# Tests used:
# [1] = Stability in liver microsomes, human; conditions: for AUC Mono (treprostinil formed) / AUC / CLint / Half-life: human
# [2] = Stability in liver microsomes, dog; conditions: for AUC Mono (treprostinil formed) / CLint / Half-life: dog
# [3] = Stability in cryopreserved hepatocytes, rat; conditions: for Mono AUC (treprostinil formed) / AUC / CLint / Half-life: rat; for CLint, calculated (in parentheses) / Half-life, calculated (in parentheses) / CLint / Half-life: hepatocytes
# [4] = Stability in human subcutaneous skin homogenate; conditions: for Mono AUC (treprostinil formed) / AUC: human
# [5] = biological target: prostaglandin I2 (PGI2) receptor (IP) (Homo sapiens, UniProt P43119); test: IP receptor cAMP agonist assay (CHO-K1 cells); assay type: cell-based; set-up: key to EC50 Fold Different from Treprostinil, IP Receptor: NC = too inactive to realistically calculate; conditions: for IP Relative to Tre: Table 22, relative to treprostinil EC50 values, * partial agonists or ambiguous dose-response curves; for Activity at the IP receptor compared to treprostinil: summary of findings
# Sequence of prostaglandin I2 (PGI2) receptor (IP) (P43119 whole entry): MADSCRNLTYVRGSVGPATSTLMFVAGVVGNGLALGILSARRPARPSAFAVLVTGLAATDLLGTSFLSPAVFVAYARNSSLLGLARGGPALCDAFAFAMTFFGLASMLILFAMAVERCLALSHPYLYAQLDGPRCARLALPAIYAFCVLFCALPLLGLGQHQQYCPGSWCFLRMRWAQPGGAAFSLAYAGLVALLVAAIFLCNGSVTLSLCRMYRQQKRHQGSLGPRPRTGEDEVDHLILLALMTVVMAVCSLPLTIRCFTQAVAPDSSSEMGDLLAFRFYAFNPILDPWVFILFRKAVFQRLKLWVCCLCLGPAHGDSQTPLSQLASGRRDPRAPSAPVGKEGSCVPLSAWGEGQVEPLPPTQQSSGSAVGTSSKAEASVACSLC
# Procedure: Cyclic AMP assay kit: Multiscreen™ TR-FRET cAMP 1.0 No Wash Assay Kit (Multispan, Inc.)
# Cells were thawed from frozen cells and resuspended in assay buffer at desired concentrations. cAMP or Calcium assays were performed according to the manufacturer's protocol using Multiscreen™ TR-FRET cAMP 1.0 No Wash Assay Kit or Multiscreen™ Calcium 1.0 No Wash Kit.
# Gas Cyclic AMP (cAMP) Assay: In agonist mode testing, cells were seeded in a 384-well plate at an appropriate density and then were treated with compounds and incubated at 37° C. for 20 minutes. The reaction was terminated by […] trFluor™ Eu-labeled cAMP and trFluor™ 650-labeled anti-cAMP antibody in lysis buffer. […] All testing wells contained 0.1% DMSO in the final concentrations.
# Data in graphs are represented in Mean±SD. Dose-dependent responses were fitted with sigmoidal dose-response curves allowing variable slopes using GraphPad Prism version 6 (Graphpad Prism).
# These studies used cell lines overexpressing either human IP, EP2 or DP1, or EP1 receptors, and following incubation with varying concentrations of compounds, cAMP levels were measured using Fluorescence Resonance Energy Transfer (FRET).
compound,measurement,setting,value
CCCCCC(CCC1C(O)CC2Cc3c(cccc3OCC(=O)O)CC21)OC(=O)CC (stereo not shown) [Prodrug LV],Treprostinil Concentration 0 min,[1],1.17 µM
same,Treprostinil Concentration 15 min,[1],1.01 µM
same,Treprostinil Concentration 30 min,[1],0.837 µM
same,Treprostinil Concentration 60 min,[1],0.736 µM
same,Treprostinil Concentration 120 min,[1],0.389 µM
same,AUC Mono (treprostinil formed),[1],44.9 µmol·min/L
same,Treprostinil Concentration 0 min,[2],0.971 µM
same,Treprostinil Concentration 15 min,[2],0.961 µM
same,Treprostinil Concentration 30 min,[2],0.934 µM
same,Treprostinil Concentration 60 min,[2],0.915 µM
same,Treprostinil Concentration 120 min,[2],0.743 µM
same,AUC Mono (treprostinil formed),[2],53.3 µmol·min/L
same,Treprostinil Concentration 0 min,[3],0.0159 µM
same,Treprostinil Concentration 120 min,[3],0.391 µM
same,Mono AUC (treprostinil formed),[3],49.3 µmol·min/L
same,Treprostinil Concentration 0 min,[4],0.0045 µM
same,Treprostinil Concentration 30 min,[4],0.545 µM
same,Mono AUC (treprostinil formed),[4],78.38 µmol·min/L
same,IP Relative to Tre,[5],54x
"CCCCCC(CCC1C(OC(=O)CC)CC2Cc3c(cccc3OCC(=O)O)CC21)OC(=O)CC (stereo not shown) [Prodrug LXX, treprostinil dipropionate]",Trep Concentration 0 min,[1],1.18 µM
same,Trep Concentration 10 min,[1],0.903 µM
same,Trep Concentration 20 min,[1],0.602 µM
same,Trep Concentration 30 min,[1],0.538 µM
same,Trep Concentration 60 min,[1],0.381 µM
same,Treprostinil Concentration 0 min,[1],1.18 µM
same,Treprostinil Concentration 15 min,[1],0.903 µM
same,Treprostinil Concentration 30 min,[1],0.602 µM
same,Treprostinil Concentration 60 min,[1],0.538 µM
same,Treprostinil Concentration 120 min,[1],0.381 µM
same,AUC,[1],37.43 µmol·min/L
same,AUC Mono (treprostinil formed),[1],37.4 µmol·min/L
same,CLint,[1]; microsomes,>0.139 mL/min/mg protein
same,Half-life,[1]; microsomes,<10 min
same,Trep Concentration 0 min,[2],1.24 µM
same,Trep Concentration 10 min,[2],1.26 µM
same,Trep Concentration 20 min,[2],1.24 µM
same,Trep Concentration 30 min,[2],1.23 µM
same,Trep Concentration 60 min,[2],1.07 µM
same,Treprostinil Concentration 0 min,[2],1.24 µM
same,Treprostinil Concentration 15 min,[2],1.26 µM
same,Treprostinil Concentration 30 min,[2],1.24 µM
same,Treprostinil Concentration 60 min,[2],1.23 µM
same,Treprostinil Concentration 120 min,[2],1.07 µM
same,AUC Mono (treprostinil formed),[2],71.9 µmol·min/L
same,CLint,[2]; microsomes,>0.139 mL/min/mg protein
same,Half-life,[2]; microsomes,<10 min
same,Trep Concentration (μM) 0 min,[3],0 µM
same,Trep Concentration (μM) 15 min,[3],0.606 µM
same,Trep Concentration (μM) 30 min,[3],0.579 µM
same,Trep Concentration (μM) 60 min,[3],0.484 µM
same,Trep Concentration (μM) 120 min,[3],0.405 µM
same,Treprostinil Concentration 0 min,[3],0 µM
same,Treprostinil Concentration 120 min,[3],0.405 µM
same,"CLint, calculated (in parentheses)",[3],0.116 mL/min/mg protein
same,"Half-life, calculated (in parentheses)",[3],3.97 min
same,AUC,[3],56.05 µmol·min/L
same,Mono AUC (treprostinil formed),[3],56.1 µmol·min/L
same,CLint,[3],> 0.0308 mL/min/mg protein
same,Half-life,[3],< 15 min
same,Trep Concentration 0 min,[4],0 µM
same,Trep Concentration 30 min,[4],0.0179 µM
same,Trep Concentration 60 min,[4],0.0411 µM
same,Trep Concentration 120 min,[4],0.0972 µM
same,Treprostinil Concentration 0 min,[4],0 µM
same,Treprostinil Concentration 30 min,[4],0.0179 µM
same,AUC,[4],5.303 µmol·min/L
same,Mono AUC (treprostinil formed),[4],5.303 µmol·min/L
same,"EC50 Fold Different from Treprostinil, IP Receptor","[5]; Table 18, * partial agonists or odd dose-response curves",NC
same,Activity at the IP receptor compared to treprostinil,[5],inactive
"CCCCCC(CCC1C(OC(=O)OC)CC2Cc3c(cccc3OCC(=O)O)CC21)OC(=O)OC (stereo not shown) [Prodrug LXXI, treprostinil dicarbonate]",AUC,[1],10.56 µmol·min/L
same,AUC Mono (treprostinil formed),[1],10.6 µmol·min/L
same,CLint,[1]; microsomes,> 0.139 mL/min/mg protein
same,Half-life,[1]; microsomes,< 10 min
same,"CLint, calculated (in parentheses)",[1]; microsomes,0.189 mL/min/mg protein
same,"Half-life, calculated (in parentheses)",[1]; microsomes,7.32 min
same,AUC Mono (treprostinil formed),[2],56.2 µmol·min/L
same,CLint,[2]; microsomes,> 0.139 mL/min/mg protein
same,Half-life,[2]; microsomes,< 10 min
same,"CLint, calculated (in parentheses)",[2]; microsomes,0.454 mL/min/mg protein
same,"Half-life, calculated (in parentheses)",[2]; microsomes,3.05 min
same,"CLint, calculated (in parentheses)",[3],0.295 mL/min/mg protein
same,"Half-life, calculated (in parentheses)",[3],1.56 min
same,AUC,[3],39.77 µmol·min/L
same,Mono AUC (treprostinil formed),[3],39.8 µmol·min/L
same,CLint,[3],> 0.0308 mL/min/mg protein
same,Half-life,[3],< 15 min
same,AUC,[4],0.3108 µmol·min/L
same,Mono AUC (treprostinil formed),[4],0.3108 µmol·min/L
same,Activity at the IP receptor compared to treprostinil,[5],inactive
CCCCCC(CCC1C(O)CC2Cc3c(cccc3OCC(=O)O)CC21)OP(=O)(O)O (stereo not shown) [Prodrug VI],Treprostinil Concentration 0 min,[1],0.02 µM
same,Treprostinil Concentration 15 min,[1],0.038 µM
same,Treprostinil Concentration 30 min,[1],0.038 µM
same,Treprostinil Concentration 60 min,[1],0.03 µM
same,Treprostinil Concentration 120 min,[1],0.061 µM
same,AUC Mono (treprostinil formed),[1],2.4 µmol·min/L
same,Treprostinil Concentration 0 min,[2],0.21 µM
same,Treprostinil Concentration 15 min,[2],0.32 µM
same,Treprostinil Concentration 30 min,[2],0.43 µM
same,Treprostinil Concentration 60 min,[2],0.48 µM
same,Treprostinil Concentration 120 min,[2],0.75 µM
same,AUC Mono (treprostinil formed),[2],29.4 µmol·min/L
same,Treprostinil Concentration 0 min,[3],0.128 µM
same,Treprostinil Concentration 120 min,[3],0.53 µM
same,Mono AUC (treprostinil formed),[3],66.9 µmol·min/L
same,Treprostinil Concentration 0 min,[4],0 µM
same,Treprostinil Concentration 30 min,[4],0.6 µM
same,Mono AUC (treprostinil formed),[4],91.95 µmol·min/L
same,IP Relative to Tre,[5],5x
same,IP Relative to Tre,[5]; listed as Prodrug VI repeat,1.5x
CCCCCC(CCC1C(O)CC2Cc3c(cccc3OCC(=O)O)CC21)OC(C)=O (stereo not shown) [Prodrug XLIII],Treprostinil Concentration 0 min,[1],0.883 µM
same,Treprostinil Concentration 15 min,[1],0.681 µM
same,Treprostinil Concentration 30 min,[1],0.602 µM
same,Treprostinil Concentration 60 min,[1],0.513 µM
same,Treprostinil Concentration 120 min,[1],0.341 µM
same,AUC Mono (treprostinil formed),[1],32.6 µmol·min/L
same,Treprostinil Concentration 0 min,[2],0.964 µM
same,Treprostinil Concentration 15 min,[2],0.917 µM
same,Treprostinil Concentration 30 min,[2],0.899 µM
same,Treprostinil Concentration 60 min,[2],0.932 µM
same,Treprostinil Concentration 120 min,[2],0.873 µM
same,AUC Mono (treprostinil formed),[2],54.7 µmol·min/L
same,Treprostinil Concentration 0 min,[3],0.00292 µM
same,Treprostinil Concentration 120 min,[3],0.503 µM
same,Mono AUC (treprostinil formed),[3],41.4 µmol·min/L
same,Treprostinil Concentration 0 min,[4],0.0034 µM
same,Treprostinil Concentration 30 min,[4],0.382 µM
same,Treprostinil Concentration 60 min,[4],0.583 µM
same,Treprostinil Concentration 120 min,[4],0.839 µM
same,Mono AUC (treprostinil formed),[4],62.92 µmol·min/L
same,IP Relative to Tre,[5],632x
